Converted amounts (≈) assume the structure as drawn.
Key:
Escherichia coli [1] = assay: Zone of inhibition of Escherichia coli after treatment with the compound; format: functional
Staphylococcus aureus [2] = assay: Zone of inhibition of Staphylococcus aureus after treatment with compound; format: functional
Pseudomonas aeruginosa [3] = assay: Zone of inhibition of Pseudomonas aeruginosa after treatment with the compound; format: functional
Staphylococcus aureus [4] = assay: Minimum inhibitory concentration in Staphylococcus aureus S2 strain was determined; format: functional
Klebsiella pneumoniae [5] = assay: Minimum inhibitory concentration in Klebsiella pneumoniae K2 strain was determined; format: functional
[6] = Minimum inhibitory concentration in Enterobacter En1 strain was determined; format: functional
Klebsiella pneumoniae [7] = assay: Minimum inhibitory concentration in Klebsiella pneumoniae K1 strain was determined; format: functional
Acinetobacter sp. [8] = assay: Minimum […] concentration in Acinetobacter species A1 strain was determined; format: functional
Escherichia coli [9] = assay: Minimum […] concentration in Escherichia coli E3 strain was determined; format: functional
Acinetobacter sp. [10] = assay: Minimum inhibitory concentration in Acinetobacter species A2 strain was determined; format: functional
Pseudomonas aeruginosa [11] = assay: Minimum […] concentration in Pseudomonas aeruginosa P7 strain was determined; format: functional
Escherichia coli [12] = assay: Minimum inhibitory concentration in Escherichia coli E3 strain was determined; format: functional
[13] = Minimum inhibitory concentration in Enterobacter En3 strain was determined; format: functional
Escherichia coli [14] = assay: Minimum inhibitory concentration in Escherichia coli E1 strain was determined; format: functional
Pseudomonas aeruginosa [15] = assay: Minimum […] concentration in Pseudomonas aeruginosa P12 strain was determined; format: functional
Klebsiella pneumoniae [16] = assay: Minimum […] concentration in Klebsiella pneumoniae K1 strain was determined; format: functional
Pseudomonas aeruginosa [17] = assay: Minimum […] concentration in Pseudomonas aeruginosa ATCC 27853 was determined; format: functional
Pseudomonas aeruginosa [18] = assay: Minimum inhibitory concentration in Pseudomonas aeruginosa P7 strain was determined; format: functional
Staphylococcus aureus [19] = assay: Minimum inhibitory concentration in Staphylococcus aureus ATCC 25923 strian was determined; format: functional
[20] = Minimum […] concentration in Enterobacter En1 strain was determined; format: functional
Staphylococcus aureus [21] = assay: Minimum […] concentration in Staphylococcus aureus S1 strain was determined; format: functional
Pseudomonas aeruginosa [22] = assay: Minimum inhibitory concentration in Pseudomonas aeruginosa P12 strain was determined; format: functional
Klebsiella pneumoniae [23] = assay: Minimum […] concentration in Klebsiella pneumoniae K2 strain was determined; format: functional
Escherichia coli [24] = assay: Minimum […] concentration Escherichia coli ATCC 25922 strain was determined; format: functional
Acinetobacter sp. [25] = assay: Minimum inhibitory concentration in Acinetobacter species A1 strain was determined; format: functional
Staphylococcus aureus [26] = assay: Minimum inhibitory concentration in Staphylococcus aureus S1 strain was determined; format: functional
Pseudomonas aeruginosa [27] = assay: Minimum inhibitory concentration in Pseudomonas aeruginosa ATCC 27853 strain was determined; format: functional
Staphylococcus aureus [28] = assay: Minimum […] concentration in Staphylococcus aureus ATCC 25923 strain was determined; format: functional
[29] = Minimum […] concentration in Enterobacter En3 strain was determined; format: functional
Escherichia coli [30] = assay: Minimum […] concentration in Escherichia coli E1 strain was determined; format: functional
Escherichia coli [31] = assay: Minimum inhibitory concentration in Escherichia coli ATCC 25922 strain was determined; format: functional
Staphylococcus aureus [32] = assay: Minimum […] concentration in Staphylococcus aureus S2 strain was determined; format: functional
Acinetobacter sp. [33] = assay: Minimum […] concentration in Acinetobacter species A2 strain was determined; format: functional
Pseudomonas aeruginosa [34] = assay: Zone of inhibition of Pseudomonas aeruginosa after treatment with the 30 ug of the compound; format: functional
Staphylococcus aureus [35] = assay: Zone of inhibition of Staphylococcus aureus after treatment with the 30 ug of the compound; format: functional
Escherichia coli [36] = assay: Zone of inhibition of Escherichia coli after treatment with the 30 ug of the compound; format: functional
Staphylococcus aureus [37] = assay: Zone of inhibition of Staphylococcus aureus after treatment with the compound; format: functional
Escherichia coli [38] = assay: Zone of inhibition of Escherichia coli after treatment with 10 ug of the compound; format: functional, organism-based
Staphylococcus aureus [39] = assay: Zone of inhibition of Staphylococcus aureus after treatment with 10 ug of the compound; format: functional, organism-based
Pseudomonas aeruginosa [40] = assay: Zone of inhibition of Pseudomonas aeruginosa after treatment with 10 ug of the compound; format: functional, organism-based

Compound: C/N=C1\C(Br)=C(O)OC1O (stereo unspecified)
- Inhibition (Escherichia coli [1]): 9 mm
- Inhibition (Staphylococcus aureus [2]): 16 mm
- Inhibition (Pseudomonas aeruginosa [3]): 7 mm

Compound: C/N=C1\C(Cl)=C(O)OC1O (stereo unspecified)
- MIC (Staphylococcus aureus [4]): 4 µg/mL (≈ 24.5 µM)
- MIC (Klebsiella pneumoniae [5]): 32 µg/mL (≈ 196 µM)
- MIC [6]: 32 µg/mL (≈ 196 µM)
- MIC (Klebsiella pneumoniae [7]): 16 µg/mL (≈ 97.8 µM)
- MBC (Acinetobacter sp. [8]): 16 µg/mL (≈ 97.8 µM)
- MBC (Escherichia coli [9]): 64 µg/mL (≈ 391 µM)
- MIC (Acinetobacter sp. [10]): 64 µg/mL (≈ 391 µM)
- MBC (Pseudomonas aeruginosa [11]): 64 µg/mL (≈ 391 µM)
- MIC (Escherichia coli [12]): 64 µg/mL (≈ 391 µM)
- MIC [13]: 32 µg/mL (≈ 196 µM)
- MIC (Escherichia coli [14]): 32 µg/mL (≈ 196 µM)
- MBC (Pseudomonas aeruginosa [15]): 64 µg/mL (≈ 391 µM)
- Inhibition (Escherichia coli [1]): 11 mm
- MBC (Klebsiella pneumoniae [16]): 32 µg/mL (≈ 196 µM)
- MBC (Pseudomonas aeruginosa [17]): 32 µg/mL (≈ 196 µM)
- MIC (Pseudomonas aeruginosa [18]): 32 µg/mL (≈ 196 µM)
- MIC (Staphylococcus aureus [19]): 8 µg/mL (≈ 48.9 µM)
- MBC [20]: 64 µg/mL (≈ 391 µM)
- MBC (Staphylococcus aureus [21]): 32 µg/mL (≈ 196 µM)
- MIC (Pseudomonas aeruginosa [22]): 32 µg/mL (≈ 196 µM)
- MBC (Klebsiella pneumoniae [23]): 64 µg/mL (≈ 391 µM)
- MBC (Escherichia coli [24]): 32 µg/mL (≈ 196 µM)
- MIC (Acinetobacter sp. [25]): 8 µg/mL (≈ 48.9 µM)
- Inhibition (Staphylococcus aureus [2]): 10 mm
- MIC (Staphylococcus aureus [26]): 16 µg/mL (≈ 97.8 µM)
- MIC (Pseudomonas aeruginosa [27]): 16 µg/mL (≈ 97.8 µM)
- MBC (Staphylococcus aureus [28]): 16 µg/mL (≈ 97.8 µM)
- MBC [29]: 32 µg/mL (≈ 196 µM)
- MBC (Escherichia coli [30]): 32 µg/mL (≈ 196 µM)
- MIC (Escherichia coli [31]): 16 µg/mL (≈ 97.8 µM)
- MBC (Staphylococcus aureus [32]): 8 µg/mL (≈ 48.9 µM)
- Inhibition (Pseudomonas aeruginosa [3]): 8 mm
- MBC (Acinetobacter sp. [33]): 64 µg/mL (≈ 391 µM)

Compound: OC1=C(Cl)/C(=N\Cc2ccccc2)C(O)O1 (stereo unspecified)
- MIC (Staphylococcus aureus [4]): 32 µg/mL (≈ 134 µM)
- MIC (Klebsiella pneumoniae [5]): 16 µg/mL (≈ 66.8 µM)
- MIC [6]: 8 µg/mL (≈ 33.4 µM)
- MIC (Klebsiella pneumoniae [7]): 32 µg/mL (≈ 134 µM)
- MBC (Acinetobacter sp. [8]): 8 µg/mL (≈ 33.4 µM)
- MBC (Escherichia coli [9]): 32 µg/mL (≈ 134 µM)
- MIC (Acinetobacter sp. [10]): 8 µg/mL (≈ 33.4 µM)
- MBC (Pseudomonas aeruginosa [11]): 32 µg/mL (≈ 134 µM)
- MIC (Escherichia coli [12]): 16 µg/mL (≈ 66.8 µM)
- MIC [13]: 16 µg/mL (≈ 66.8 µM)
- MIC (Escherichia coli [14]): 16 µg/mL (≈ 66.8 µM)
- MBC (Pseudomonas aeruginosa [15]): 32 µg/mL (≈ 134 µM)
- Inhibition (Escherichia coli [1]): 6 mm
- MBC (Klebsiella pneumoniae [16]): 32 µg/mL (≈ 134 µM)
- MBC (Pseudomonas aeruginosa [17]): 64 µg/mL (≈ 267 µM)
- MIC (Pseudomonas aeruginosa [18]): 32 µg/mL (≈ 134 µM)
- MIC (Staphylococcus aureus [19]): 4 µg/mL (≈ 16.7 µM)
- MBC [20]: 16 µg/mL (≈ 66.8 µM)
- MBC (Staphylococcus aureus [21]): 32 µg/mL (≈ 134 µM)
- MIC (Pseudomonas aeruginosa [22]): 16 µg/mL (≈ 66.8 µM)
- MBC (Klebsiella pneumoniae [23]): 32 µg/mL (≈ 134 µM)
- MBC (Escherichia coli [24]): 16 µg/mL (≈ 66.8 µM)
- MIC (Acinetobacter sp. [25]): 4 µg/mL (≈ 16.7 µM)
- Inhibition (Staphylococcus aureus [2]): 16 mm
- MIC (Staphylococcus aureus [26]): 16 µg/mL (≈ 66.8 µM)
- MIC (Pseudomonas aeruginosa [27]): 32 µg/mL (≈ 134 µM)
- MBC (Staphylococcus aureus [28]): 8 µg/mL (≈ 33.4 µM)
- MBC [29]: 32 µg/mL (≈ 134 µM)
- MBC (Escherichia coli [30]): 16 µg/mL (≈ 66.8 µM)
- MIC (Escherichia coli [31]): 8 µg/mL (≈ 33.4 µM)
- MBC (Staphylococcus aureus [32]): 32 µg/mL (≈ 134 µM)
- Inhibition (Pseudomonas aeruginosa [3]): 6 mm
- MBC (Acinetobacter sp. [33]): 16 µg/mL (≈ 66.8 µM)

Compound: O=C(N[C@H](CO)[C@H](O)c1ccc([N+](=O)[O-])cc1)C(Cl)Cl [CHLORAMPHENICOL]
- Inhibition (Pseudomonas aeruginosa [34]): 0 mm
- Inhibition (Staphylococcus aureus [35]): 0 mm
- Inhibition (Escherichia coli [36]): 15 mm

Compound: C[S+](C)[O-] [DIMETHYL SULFOXIDE]
- Inhibition (Staphylococcus aureus [37]): 0 mm
- Inhibition (Escherichia coli [1]): 0 mm
- Inhibition (Pseudomonas aeruginosa [3]): 0 mm

Compound: GENTAMICIN
- Inhibition (Escherichia coli [38]): 25 mm
- Inhibition (Staphylococcus aureus [39]): 31 mm
- Inhibition (Pseudomonas aeruginosa [40]): 0 mm

Compound: N=C1C(Cl)=C(O)OC1O (stereo unspecified)
- MIC (Staphylococcus aureus [4]): 4 µg/mL (≈ 26.7 µM)
- MIC (Klebsiella pneumoniae [5]): 128 µg/mL (≈ 856 µM)
- MIC [6]: 64 µg/mL (≈ 428 µM)
- MIC (Klebsiella pneumoniae [7]): 32 µg/mL (≈ 214 µM)
- MBC (Acinetobacter sp. [8]): 32 µg/mL (≈ 214 µM)
- MBC (Escherichia coli [9]): 128 µg/mL (≈ 856 µM)
- MIC (Acinetobacter sp. [10]): 32 µg/mL (≈ 214 µM)
- MBC (Pseudomonas aeruginosa [11]): 64 µg/mL (≈ 428 µM)
- MIC (Escherichia coli [12]): 64 µg/mL (≈ 428 µM)
- MIC [13]: 64 µg/mL (≈ 428 µM)
- MIC (Escherichia coli [14]): 32 µg/mL (≈ 214 µM)
- MBC (Pseudomonas aeruginosa [15]): 128 µg/mL (≈ 856 µM)
- Inhibition (Escherichia coli [1]): 8 mm
- MBC (Klebsiella pneumoniae [16]): 64 µg/mL (≈ 428 µM)
- MBC (Pseudomonas aeruginosa [17]): 64 µg/mL (≈ 428 µM)
- MIC (Pseudomonas aeruginosa [18]): 32 µg/mL (≈ 214 µM)
- MIC (Staphylococcus aureus [19]): 16 µg/mL (≈ 107 µM)
- MBC [20]: 64 µg/mL (≈ 428 µM)
- MBC (Staphylococcus aureus [21]): 16 µg/mL (≈ 107 µM)
- MIC (Pseudomonas aeruginosa [22]): 64 µg/mL (≈ 428 µM)
- MBC (Klebsiella pneumoniae [23]): 128 µg/mL (≈ 856 µM)
- MBC (Escherichia coli [24]): 128 µg/mL (≈ 856 µM)
- MIC (Acinetobacter sp. [25]): 16 µg/mL (≈ 107 µM)
- Inhibition (Staphylococcus aureus [2]): 16 mm
- MIC (Staphylococcus aureus [26]): 16 µg/mL (≈ 107 µM)
- MIC (Pseudomonas aeruginosa [27]): 32 µg/mL (≈ 214 µM)
- MBC (Staphylococcus aureus [28]): 32 µg/mL (≈ 214 µM)
- MBC [29]: 64 µg/mL (≈ 428 µM)
- MBC (Escherichia coli [30]): 64 µg/mL (≈ 428 µM)
- MIC (Escherichia coli [31]): 64 µg/mL (≈ 428 µM)
- MBC (Staphylococcus aureus [32]): 8 µg/mL (≈ 53.5 µM)
- Inhibition (Pseudomonas aeruginosa [3]): 8 mm
- MBC (Acinetobacter sp. [33]): 64 µg/mL (≈ 428 µM)

Reference: ChEMBL document CHEMBL1141978, “Synthesis and antibacterial activities of 5-hydroxy-4-amino-2(5H)-furanones” (2005)
